# Assay results: US20060251638A1, “Cytoprotection through the use of hif hydroxylase inhibitors” (priority 2003, published 2006)
# System: gene encoding adrenomedullin
# Test: Adrenomedullin gene expression in Hep3B cells (microarray)
# Format: cell-based, human
# Conditions: 25 μM compound, 6 hrs, average of two determinations
# Experimental: Hep3B cells (ATCC No. HB-8064) were grown in DMEM containing 8% fetal bovine serum. Hep3B cells were seeded into 6-well culture dishes at ˜500,000 cells per well. After 8 hours, the media was changed to DMEM containing 0.5% fetal bovine serum and the cells were incubated for an additional 16 hours. Compound A, compound B, compound C, compound G, or compound H was added to the cells (25 μM final concentration) and the cells were incubated for various times. Control cells were incubated with vehicle (DMSO) with no compound treatment. Harvested cells were assessed for cell viability (GUAVA), or added to RNA extraction buffer (RNeasy, Qiagen) and stored at −20° C. for subsequent RNA purification.
# RNA was precipitated in 0.3 M sodium acetate (pH 5.2), 50 ng/ml glycogen, and 2.5 volumes of ethanol for one hour at −20° C. Samples were centrifuged and pellets were washed with cold 80% ethanol, dried, and resuspend in water. Double stranded cDNA was synthesized using a T7-(dT)24 first strand primer (Affymetrix, Inc., Santa Clara Calif.) and the SUPERSCRIPT CHOICE system (Invitrogen) according to the manufacturer's instructions. The final cDNA was extracted with an equal volume of 25:24:1 phenol:chloroform:isoamyl alcohol using a PHASE LOCK GEL insert (Brinkman, Inc., Westbury N.Y.). The aqueous phase was collected and cDNA was precipitated using 0.5 volumes of 7.5 M ammonium acetate and 2.5 volumes of ethanol. Alternatively, cDNA was purified using the GENECHIP sample cleanup module (Affymetrix) according to the manufacturer's instructions.
# Biotin-labeled cRNA was synthesized from the cDNA in an in vitro […] (IVT) reaction using a BIOARRAY HighYield RNA transcript labeling kit (Enzo Diagnostics, Inc., Farmingdale N.Y.) according to the manufacturer's instructions. Final labeled product was purified and fragmented using the GENECHIP sample cleanup module (Affymetrix) according to the manufacturer's instructions.
# Hybridization cocktail was prepared by bringing 5 μg probe to 100 μl in 1× hybridization buffer (100 mM MES, 1 M [Na^+], 20 mM EDTA, 0.01% Tween 20), 100 μg/ml herring sperm DNA, 500 μg/ml acetylated BSA, 0.03 nM contol oligo B2 (Affymetrix), and 1× GENECHIP eukaryotic hybridization control (Affymetrix). The cocktail was sequentially incubated at 99° C. for 5 minutes and 45° C. for 5 minutes, and then centrifuged for 5 minutes. The […] array (Affymetrix) was brought to room temperature and then prehybridized with 1× hybridization buffer at 45° C. for 10 minutes with rotation. The buffer was then replaced with 80 μl hybridization cocktail and the array was hybridized for 16 hours at 45° C. at 60 rpm with counter balance. Following hybridization, arrays were washed once with 6×SSPE, 0.1% Tween 20, and then washed and stained using R-phycoerythrin-conjugated streptavidin (Molecular Probes, Eugene Oreg.), goat anti-streptavidin antibody (Vector Laboratories, Burlingame Calif.), and a GENECHIP Fluidics Station 400 instrument (Affymetrix) according to the manufacturer's EukGE-WS2v4 protocol (Affymetrix). Arrays were analyzed using a GENEARRAY scanner (Affymetrix) and Microarray Suite software (Affymetrix).
# RNA quality was monitored by capillary electrophoresis (Agilent Bioanalyzer). […] Array performance was analyzed with Affymetrix MicroArray Suite (MAS) software and individual probe sets were assigned “present”, “marginal, and “absent” calls according to software defaults. […]
smiles,measurement,value
"O=C(O)CNC(=O)c1ncc2cc(Oc3ccccc3)ccc2c1O [Compound G, [(4-Hydroxy-7-phenoxy-isoquinoline-3-carbonyl)-amino]-acetic acid]","Adrenomedullin gene expression, fold-increase above non-treated control",3.278 fold
